Test results published in patent US20140010939A1, “Sweetness Enhancers, Sweetener Compositions, Methods of Making the Same and Consumables Containing the Same” (Nutrinova Nutrition Specialties & Food Ingredients GmbH, priority 2011, published 2014).

Tested on: control cell line without sweet receptor (HEKα15#17)
Assay: Control cell line without sweet receptor in the same calcium cell based assay
Experimental: For measurement of human T1R2/T1R3 taste receptor dependent activity a control cell line without sweet receptor based on HEK 293 and a cell line expressing the sweet receptor hT1R2/hT1R3 based on HEK 293, respectively, are seeded into assay plates and labelled with the calcium sensitive fluorescence dye Fluo4-AM in a culture medium. The potential modulators, e.g. the test compound, are added to the control cell line and to the cell line expressing the sweet receptor hT1R2/hT1R3, respectively.
A stable cell line based on HEK293 was termed HEKα15#17 served as control for functional Ga-protein and a stable cell line HEKGα15#17R2R3b#8 C6 served as cell line expressing the sweet receptor hT1R2/hT1R3 based on HEKGα15#17.
The cells were cultured in DMEM/HG and 10% FCS Gold, 4 mM L-Glutamin, 1,3 mg/ml Geneticin (HEKGα15#17) or the same medium additionally containing 6 μg/ml Blasticidin (HEKGα15#17R2R3b#8 C6). The medium for the assay was DMEM/HG (high glucose, 4.5 g/l glucose, Life Technologies) and 10% FCS Gold, 4 mM L-Glutamin (HEKGα15#17) or DMEM/LG (low glucose, 1 g/l glucose; Life Technologies) and 10% FCS Gold (HEKGα15#17R2R3b#8C6), respectively.
In order to evaluate the sweet receptor modulating activity of the compound of formula (Ia), compound of formula (Ia) was added to the cultures in a concentration of 25 μM in a volume of 50 μl. Controls were KH-buffer (Krebs HEPES-buffer: 118 mM NaCl, 4.7 mM KCl, 1.2 mM MgSO4, 1.2 mM KH2PO4, 4.2 mM NaHCO3, 1.3 mM CaCl2, 10 mM Hepes, pH 7.4) either without or with sweetness enhancer.
Further controls for function of G-protein and receptor were isoproterenol (1 μM, Sigma Aldrich), ionomycin (1 μM, Calbiochem) and ATP (1 μM, Applichem).
For measurement of human T1R2/T1R3 taste receptor dependent activity, on day 1 of the test procedure the HEKα15#17 cells (control cell line without sweet receptor) and the HEKGα15#17R2R3b#8 C6 cells (cell line expressing the sweet receptor hT1R2/hT1R3), respectively, were transferred to low-glucose medium.
On day 2 the cells were seeded into assay plates at a density of 25,000 cells/well. Assay plates for fluorescence measurement (black clear bottom 96-cavity plates, Greiner Bio-One) were coated with poly-D-lysine. For direct comparison both cell lines (control cell line without sweet receptor and cell line expressing the sweet receptor hT1R2/hT1R3) were seeded into different cavities of the same assay plate. The plate was placed into the incubator for 48 hours at 37° C., 5% CO2, 100% relative humidity.
On day 4 the calcium assay was performed. For this assay, the cells were marked with Fluo4-AM in medium and KH-buffer. To each cavity 100 μl KH-buffer/250 μM sulfinpyrazone/4 μM Fluo4-AM were added gently to 100 μl medium (final concentration of Fluo4-AM=2 μM, stock solution of Fluo4-AM 1 mM in DMSO, excitation at 485 nm, emission at 520 nm, Fisher Scientific, 58239 Schwerte, Germany).
The plate was placed into the incubator for 1 hour. In the mean time the test substances (“ligands”) were prepared in a separate plate (5 times concentrated, 150 μl/cavity, and then automatically 50 μl/cavity were transferred into the screening cell plate by pipetting robot (FLEX-station, Molecular Devices, Sunnyvale, Calif.).
The culture medium was carefully removed and 200 μl KH-buffer/250 μM sulfinpyrazone per cavity was added slowly. Cells were left in the FLEX-station for 20 minutes for adaptation, followed by measurement at 37° C.

In the case of `CC(=O)N(O)CCCCCNC(=O)C(O)(CC(=O)O)CC(=O)NCCCN(O)C(C)=O` (stereo not drawn) [compound of formula (Ia)], the “Fluo4-AM fluorescence increase (activation of control cell line)” value (from here on “Fluo4-AM fluorescence increase”) (25 μM, in the presence of fructose (20 mM), FIG. 1 ninth bar) is reported as “does not activate the control cell line”, the “Fluo4-AM fluorescence increase” value (25 μM, without fructose, FIG. 1 eighth bar) is reported as “does neither activate the control cell line” and the “Fluo4-AM fluorescence increase” value (secondary screening, in the presence of fructose, FIG. 1 seventh bar) is reported as “does not activate the control cell line”.
